One data set has as its system C2C12 cells. The data set can be described thus: Measurement of glucose absorption (3H-deoxy-glucose). Type of data set: cell-based. An excerpt: (§1) Metformin that is widely used in type 2 diabetic patients inhibits the formation of glucose, the synthesis of cholesterol and triglyceride in liver cells and promote the absorption of glucose from blood vessels in the muscle cells. […] In the case of the ability to form cholesterol, triglyceride and glucose, the lower the numerical value, the better the effect. Numerical values for a control group become reference values.
As a muscle cell model, C2C12 cells were induced to differentiate into muscle cells in 2% bovine fetal serum for 6 days. The C2C12 cells which differentiated into muscle cells were treated with each of the compounds in serum-free low glucose media, and then cultured with 1 μM of insulin for 24 hours. After cultivation, the cells were treated with 1 μCi 3H-deoxy-glucose and 10 μM deoxy-glucose at 37° C. for 15 minutes. After treatment, the media were removed, and the cells were washed twice with PBS. The washed cells were treated with 0.1 N NaOH and neutralized with 1N HCl. The amount of glucose absorbed into the cells was measured with a liquid scintillation counter. The effect of the compounds was determined by selecting a compound showing an absorption effect of at least 200%, dividing the absorption effect by the average percent of the control group, and then multiplying the divided value by […]. A higher measurement value means a stronger ability to reduce insulin resistance.

Data set [1] has as its system HepG2 cells. The data set can be described thus: Measurement of gluconeogenesis (14C-lactate). The data set is classed as cell-based. As to conditions: 24 h treatment, lower is better. As for the experimental part:
as §1
As a hepatic cell model, HepG2 cells were cultured in 10% serum-containing high glucose media, and then treated with each of the compounds for 24 hours. Then, the cells were treated with 0.5 uCi 14C-lactate and 10 mM L-lactate, and cultured for 4 hours. After cultivation, the media of the cells were removed, and the cells were washed with PBS, treated with 0.1N NaOH and left to stand at room temperature for 1 hour. Then, the cells were neutralized with 1N HCl, and the amount of glucose formed in the cells was measured with a liquid scintillation counter. […] A lower measurement value means a stronger blood glucose lowering activity.

Data set [2] deals with HepG2 cells. The data set can be described thus: Measurement of cholesterol synthesis ability (Amplex red fluorescence). The data set is classed as cell-based. Conditions: HepG2 cells, 24 h treatment, lower is better.
Excerpt: as §1
(§2) As a hepatic cell model, HepG2 cells were used to measure cholesterol synthesis inhibitory ability, which is the important function of AMPK. The hepatic cell model HepG2 cells were cultured in 1% serum-containing media for 24 hours, and then treated with each of the compounds for 24 hours. Then, the cells were disrupted with lysis buffer (0.1 M potassium phosphate, pH 7.4, 0.05 M NaCl, 5 mM cholic acid, 0.1% Triton X-100). To the disrupted cells, the same volume of a reaction solution (2 U/ml cholesterol oxidizing agent, 2 U/ml peroxidase, 0.2 U/ml cholesterol esterase, and 300 μM Amplex red as a fluorescent factor) was added and allowed to react at 37° C. for 30 minutes. After completion of the reaction, the cells were measured with a fluorometer at a wavelength of 560/590 nm (ex/em), thus quantifying the amount of […] formed in the cells. A lower measurement value means an increased lipid production inhibitory ability.

Data set [3] deals with HepG2 cells. The data set can be described thus: Measurement of triglyceride (Amplex red fluorescence). Conditions: 24 h treatment, lower is better. Type of data set: cell-based. As for the experimental part:
as §1
as §2, with “model,” for “model, HepG2 cells were used to measure cholesterol synthesis inhibitory ability, which is the important function of AMPK. The hepatic cell model”, “(0.1M” for “(0.1 M”, “(0.76” for “(2”, “glycerol kinase, […] peroxidase, 22.2 U/ml glycerol” for “cholesterol”, “agent,” for “agent, 2 U/ml peroxidase, 0.2 U/ml cholesterol esterase,”

Setting [4] is: Mus musculus, 250 uM, differentiated C2C12 muscle cells, with 1 μM insulin 24 h, higher is better, read-out: glucose absorption, % control.
Setting [5] is: Homo sapiens, 500 uM, read-out: gluconeogenesis (glucose synthesis ability), % control.
The mark [6] stands for this setting: Homo sapiens, 250 uM, read-out: cholesterol synthesis ability, % control.
The mark [7] stands for this setting: Homo sapiens, 250 uM, read-out: triglyceride synthesis ability, % control.
Where [8] appears, read: Homo sapiens, 100 uM, read-out: cholesterol synthesis ability, % control.
The mark [9] stands for this setting: Homo sapiens, 100 uM, read-out: triglyceride synthesis ability, % control.
Where [10] appears, read: Mus musculus, 100 uM, differentiated C2C12 muscle cells, with 1 μM insulin 24 h, higher is better, read-out: glucose absorption, % control.
Where [11] appears, read: Homo sapiens, 100 uM, read-out: gluconeogenesis (glucose synthesis ability), % control.

The term melting point denotes the temperature of the solid-liquid transition.

Structures can show the parent of a compound that is named as a salt.

The molecule `CN(C)c1nc(N)nc(NCc2ccco2)n1` [Example 5, N2-(furan-2-ylmethyl)-N4,N4-dimethyl-1,3,5-triazine-2,4,6-triamine] showed a melting point of 151.6 to 152 °C. For the same molecule, in the data set with C2C12 cells (setting [4]), the activity at 250 µM is 142%. In the data set with HepG2 cells [1] (setting [5]), the activity at 500 µM was determined as 68.5%. The activity at 250 µM in the data set on HepG2 cells [2] (setting [6]) was determined as 77.5%. For the same molecule, the activity at 250 µM in the data set with HepG2 cells [3] (setting [7]) was found to be 90.2%.

Take `Nc1nc(N)nc(NCc2ccc3c(c2)OCO3)n1` [Example 6, N2-(benzo[d][1,3]dioxol-5-ylmethyl)-1,3,5-triazine-2,4,6-triamine]: the melting point lay within 140.8 to 142.9 °C. The activity at 250 µM in the data set on C2C12 cells (setting [4]) came to 114%. The activity at 500 µM with HepG2 cells [1] (setting [5]) came out at 82.3%. The activity at 250 µM with HepG2 cells [2] (setting [6]) turned out to be 92.7%. In the data set on HepG2 cells [3] (setting [7]), the activity at 250 µM was 108%.

On to `CN(C)c1nc(N)nc(Nc2ccc(C(C)(C)C)cc2)n1` [Example 22, N2-(4-tert-butylphenyl)-N4,N4-dimethyl-1,3,5-triazine-2,4,6-triamine], for which the melting point lay within 253 to 263 °C. In addition, the activity at 100 µM in the data set with HepG2 cells [2] (setting [8]) was 53%. In addition, the activity at 100 µM in the data set with HepG2 cells [3] (setting [9]) stood at 34.4%.

In turn, `CN(C)c1nc(N)nc(Nc2ccc(Cl)cc2)n1` [Example 20, N2-(4-chlorophenyl)-N4,N4-dimethyl-1,3,5-triazine-2,4,6-triamine] returned a melting point of 164 to 167 °C. The activity at 100 µM in the data set on C2C12 cells (setting [10]) was 132%. In addition, the activity at 100 µM in the data set with HepG2 cells [1] (setting [11]) is 84.9%. In the data set on HepG2 cells [2] (setting [8]), the activity at 100 µM came to 56.3%. The activity at 100 µM in the data set with HepG2 cells [3] (setting [9]) turned out to be 41.4%.

`COc1ccc(OC)c(Nc2nc(N)nc(N(C)C)n2)c1` [Example 19, N2-(2,5-dimethoxyphenyl)-N4,N4-dimethyl-1,3,5-triazine-2,4,6-triamine] displayed a melting point of 213 to 215 °C. In the data set with C2C12 cells (setting [10]), the activity at 100 µM turned out to be 131%. For the same molecule, the activity at 100 µM in the data set with HepG2 cells [1] (setting [11]) is 116%. Besides, the activity at 100 µM in the data set with HepG2 cells [2] (setting [8]) worked out at 69.2%. The activity at 100 µM with HepG2 cells [3] (setting [9]) stood at 74.5%.

Turning to `CC(Nc1nc(N)nc(N(C)C)n1)c1cccc2ccccc12` (stereo not drawn) [Example 21, N2,N2-dimethyl-N4-(1-(naphthalen-1-yl)ethyl)-1,3,5-triazine-2,4,6-triamine], the melting point lay within 73 to 76 °C. Besides, the activity at 100 µM with C2C12 cells (setting [10]) came out at 140%. Further, the activity at 100 µM with HepG2 cells [1] (setting [11]) stood at 42.1%. In addition, the activity at 100 µM in the data set on HepG2 cells [2] (setting [8]) was found to be 56.6%. Also, the activity at 100 µM in the data set with HepG2 cells [3] (setting [9]) is 71%.

In the case of `CC(C)c1ccc(Nc2nc(N)nc(N(C)C)n2)cc1` [Example 28, N2-(4-isopropylphenyl)-N4,N4-dimethyl-1,3,5-triazine-2,4,6-triamine], the activity at 100 µM is 173% with C2C12 cells (setting [10]), 45.4% with HepG2 cells [1] (setting [11]), 65.9% in the data set on HepG2 cells [2] (setting [8]) and 43.2% in the data set on HepG2 cells [3] (setting [9]).

As to `CN(C)c1nc(N)nc(NCc2cccnc2)n1` [Example 4, N2,N2-dimethyl-N4-(2-pyridine-3-ylmethyl)-1,3,5-triazine-2,4,6-triamine], in the data set with C2C12 cells (250 uM, differentiated C2C12 muscle cells, with 1 μM insulin 24 h, higher is better), the “glucose absorption, % control” value is given as 143.92%. For the same molecule, in the data set with HepG2 cells [1] (500 uM), the “gluconeogenesis (glucose synthesis ability), % control” value is 92.14%. Also, the “cholesterol synthesis ability, % control” value in the data set with HepG2 cells [2] (250 uM) is 93.66%. Besides, in the data set with HepG2 cells [3] (250 uM), the “triglyceride synthesis ability, % control” value is 99.48%.

With `CN(C)C(=N)N=C(N)N` [Metformin, reference compound], the activity at 2000 µM in the data set on C2C12 cells (Mus musculus, 2 mM, differentiated C2C12 muscle cells, with 1 μM insulin 24 h, higher is better, read-out: glucose absorption, % control) turned out to be 329%; in the data set with HepG2 cells [1] (Homo sapiens, 2 mM, read-out: gluconeogenesis (glucose synthesis ability), % control) it was 52.7%; in the data set on HepG2 cells [2] (Homo sapiens, 2 mM, read-out: cholesterol synthesis ability, % control), 83.5%; in the data set on HepG2 cells [3] (Homo sapiens, 2 mM, read-out: triglyceride synthesis ability, % control), 70.6%.

With `CN(C)c1nc(N)nc(Nc2cccc(Br)c2)n1` [Example 2, N2-(3-bromophenyl)-N4,N4-dimethyl-1,3,5-trizaine-2,4,6-triamine], the “glucose absorption, % control” value in the data set with C2C12 cells (100 uM, differentiated C2C12 muscle cells, with 1 μM insulin 24 h, higher is better) was 35.23%. Besides, the “gluconeogenesis (glucose synthesis ability), % control” value in the data set on HepG2 cells [1] (100 uM) is on record as 51.89%. Further, the “cholesterol synthesis ability, % control” value in the data set with HepG2 cells [2] (100 uM) is recorded as 23.15%. Moreover, the “triglyceride synthesis ability, % control” value in the data set with HepG2 cells [3] (100 uM) was 19.11%.

Turning to `CN(C)c1nc(N)nc(Nc2ccc(Cl)c(Cl)c2)n1` [Example 17, N2-(3,4-dichlorophenyl)-N4,N4-dimethyl-1,3,5-triazine-2,4,6-triamine], the activity at 100 µM is 7.29% with C2C12 cells (setting [10]), 15.2% with HepG2 cells [1] (setting [11]), 11.3% in the data set with HepG2 cells [2] (setting [8]) and -12.1% in the data set on HepG2 cells [3] (setting [9]).

Take `CCc1ccccc1Nc1nc(N)nc(N(C)C)n1` [Example 36, N2-(2-ethylphenyl)-N4,N4-dimethyl-1,3,5-triazine-2,4,6-triamine]: the activity at 100 µM in the data set with C2C12 cells (setting [10]) was found to be 100%; with HepG2 cells [1] (setting [11]) it was 42.1%; in the data set with HepG2 cells [2] (setting [8]), 51%; in the data set on HepG2 cells [3] (setting [9]), 75.1%.

Take `CN(C)c1nc(N)nc(NCc2ccc3c(c2)OCO3)n1` (as salt: HCl) [Example 1, N2-(benzo[d][1,3]dioxol-5-ylmethyl)-N4,N4-dimethyl-1,3,5-triazine-2,4,6-triamine]: the melting point was 193.7 to 219.6 °C.

For the molecule `CN(C)c1nc(N)nc(Nc2ccccc2F)n1` [Example 30, N2-(2-fluorophenyl)-N4,N4-dimethyl-1,3,5-triazine-2,4,6-triamine], the activity at 100 µM in the data set with C2C12 cells (setting [10]) turned out to be 133%; with HepG2 cells [1] (setting [11]), 85.5%; in the data set with HepG2 cells [2] (setting [8]), 75.7%; in the data set with HepG2 cells [3] (setting [9]), 81.1%.

The molecule `CCCCCCc1ccc(Nc2nc(N)nc(N(C)C)n2)cc1` [Example 42, N2-(4-hexylphenyl)-N4,N4-dimethyl-1,3,5-triazine-2,4,6-triamine] showed a melting point of 132 to 168 °C. Moreover, the activity at 100 µM in the data set with HepG2 cells [2] (setting [8]) turned out to be 39%. For the same molecule, in the data set on HepG2 cells [3] (setting [9]), the activity at 100 µM is 34.3%.

For the molecule `CN(C)c1nc(N)nc(NCc2ccc3c(c2)OCO3)n1` [Example 1, N2-(benzo[d][1,3]dioxol-5-ylmethyl)-N4,N4-dimethyl-1,3,5-triazine-2,4,6-triamine], the activity at 250 µM turned out to be 133% with C2C12 cells (setting [4]), 81.1% in the data set with HepG2 cells [2] (setting [6]) and 103% in the data set on HepG2 cells [3] (setting [7]). For the same molecule, in the data set on HepG2 cells [1] (setting [5]), the activity at 500 µM was found to be 105%.

`CN(C)c1nc(N)nc(N2CCCC2)n1` [Example 35, N2,N2-dimethyl-6-(pyrrolidin-1-yl)-1,3,5-triazine-2,4-diamine]: the activity at 100 µM in the data set with C2C12 cells (setting [10]) came out at 285%; with HepG2 cells [1] (setting [11]), 91.4%; with HepG2 cells [2] (setting [8]), 69%; with HepG2 cells [3] (setting [9]), 99.9%. Besides, the “effect of reducing insulin resistance, times better than the control group” value in the data set on C2C12 cells (absorption effect divided by average percent of control group (metformin 2 mM), multiplied by 20) is “about 17 times”.

The record behind these values is US8722674B2, “1,3,5-triazine-2,4,6-triamine compound or pharmaceutical acceptable salt thereof, and pharmaceutical composition comprising the same” (Hanall Biopharma Co., Ltd., priority 2007, dated 2014).
